Reference: patent US10227327B2, “Inhibitors of metallo-beta-lactamase (MBL) comprising a zinc chelating moiety” (Universitetet I Oslo, priority 2013, dated 2019)

Tests used:
[1] = target: VIM-2 (Escherichia coli, UniProt Q5U7L7); experiment: IC50 determination against purified MBL, nitrocefin reporter substrate; format: biochemical; conditions: purified enzyme 1 nM, nitrocefin 50 μM, 25° C.
Procedure: (§1) General Protocol for Determination of IC50-Values
(§2) Buffers: A: 50 mM HEPES pH 7.2, 100 μM ZnCl2
(§3) • B: 50 mM HEPES pH 7.2, 100 μM ZnCl2 and 400 μg/ml Bovine Serum Albumin (BSA) Equipment: SpectraMax 96 well reader • 96 well plates • Cuvettes • General plastics: dilution tubes, eppendorfs etc. Method: Inhibitors: a. Dissolved in 100% DMSO at a concentration of 10 mM • b. Dissolve the inhibitor in buffer A to a concentration of 25% DMSO. No more than 2.5% DMSO is tolerable in the assay. 100% DMSO (10 mM); […]; […] • c. Make a 2-fold dilution series of the inhibitor. At least 8 dilutions should be made. See example in table 1 Reporter Substrate (Nitrocefin): • a. Dilute a small amount of nitrocefin in 1 ml of DMSO • b. Add 990 μl buffer A+10 μl of nitrocefin to a cuvette. • c. Measure initial OD at absorbance specific for the substrate • d. Add purified enzyme to the cuvette and let the hydrolysis run to completion (the more concentrated the enzyme the faster the hydrolysis will run) • e. Measure the end OD • f. Calculate the concentration of substrate: [(End OD−Initial OD)×dilution factor]/Δε (Δε Nitrocefin=17400) • g. Dilute nitrocefin to 100 μM in buffer A Enzyme: Dilute purified enzyme in buffer B to a concentration of 10 nM. Assay: a. Set the settings and temperature on the Spectramax/software: • I. Kinetics • II. λ: 482 • III. Time: 20 min • IV. Interval: 2-5 sec. • V. Mix before 1st read: 5 sec. • VI. Temp: 25° C. • b. Add 30 μl buffer A, 10 μl purified enzyme (final concn. 1 nM), and 10 μl inhibitor to assay wells (duplicates for each inhibitor concentration). Also include a negative control. Wells with no added inhibitor, just 40 μl buffer A. See illustration in table 1. • c. Incubate the plate in the reader for 5 min. • d. Add 50 μl nitrocefin (final concn. 50 μM) to assay wells. This should be done quickly—preferably with an electronic multi-channel pipette. • e. Start the readings immediately. Determine: the initial velocity (V0) for each inhibitor concentration and calculate IC50.

[2] = target: VIM-2 in E. coli SNO3 containing pET26b-blaVIM-2 (Escherichia coli, UniProt Q5U7L7); experiment: MBL inhibition in whole E. coli cells expressing MBL (nitrocefin hydrolysis); format: cell-based; conditions: whole cell, test substance 250 μM
[3] = target: GIM-1 in E. coli SNO3 containing pET26b-blaGIM-1 (Pseudomonas aeruginosa, UniProt Q704V1); experiment: as above; format: cell-based; conditions: whole cell, test substance 250 μM
[4] = target: GIM-1 (Pseudomonas aeruginosa, UniProt Q704V1); experiment: IC50 determination against purified MBL, nitrocefin reporter substrate; format: biochemical; conditions: purified enzyme 1 nM, nitrocefin 50 μM, 25° C.
Procedure: as §1, §2, §3

[5] = target: NDM-1 (Klebsiella pneumoniae, UniProt C7C422); experiment: as above; format: biochemical; conditions: purified enzyme 1 nM, nitrocefin 50 μM, 25° C.
Procedure: as §1, §2, §3

[6] = tested on: MBL-negative clinical strains; experiment: Synergy with meropenem in MBL-negative clinical strains; format: cell-based
Procedure: (§4) General Protocol for Microbroth Dilution Method for Evaluating Antibacterial Activity of Compounds or Synergistic Effect of Compound-Antibiotic Combination
(§5) • Plate bacterial strain(s) on appropriate media: • Gram-negative bacteria with ESBLs or carbapenemases: green agar plates with 100 mg/L ampicillin • Gram-negative bacteria without β-lactamases: green agar plates • Gram-positive bacteria (Staphylococci and Enterococci): blood agar plates • Incubate o.n. at 37° C. Day 2: Prepare the Bacterial Inoculum: • Prepare a 0.5 McFarland suspension of bacteria in 0.85% NaCl. (Should be used within 15 min of preparation). • Dilute the 0.5 McFarland suspension 1:100 into MH broth. Check the inoculum by diluting the prepared bacterial suspension 1:100 (10 μl bacterial suspension+990 μl 0.85% NaCl). Plate 10 μl of the dilution on MH agar plates (×2). Incubate o.n. at 37° C., count the colonies and calculate the final CFU/ml inoculum in the plate by multiplying the average number of colonies with 10000 and divide by 2. The final inoculum should be between 3-7×10^5 CFU/ml. • Add 50 μl of the prepared bacterial suspension to each well in the microtiter plate except negative growth control. Preparation of Compounds/Antibiotics • Calculate the desired concentration-range and volume of the compounds/antibiotics in the assay. […] Dilute the stock solution in MH broth. […]

[7] = tested on: MBL-producing P. aeruginosa, K. pneumoniae and E. coli; experiment: Synergy with meropenem in MBL-producing clinical strains; format: cell-based; conditions: compound 125 μM
Procedure: as §4, §5

[8] = tested on: E. coli 50739467 (MBL negative); experiment: Microbroth dilution, meropenem MIC with/without compound; format: cell-based; conditions: 50739467 E. coli MBL negative; for Meropenem MIC (mg/L) in presence of compound: compound at 125 μM
Procedure: as §4
(§6) • Plate bacterial strain(s) on appropriate media: • Gram-negative bacteria with ESBLs or carbapenemases: green agar plates with 100 mg/L ampicillin • Gram-negative bacteria without β-lactamases: green agar plates • Gram-positive bacteria (Staphylococci and Enterococci): blood agar plates • Incubate o.n. at 37° C. Day 2: Prepare the Bacterial Inoculum: • Prepare a 0.5 McFarland suspension of bacteria in 0.85% NaCl. (Should be used within 15 min of preparation). • Dilute the 0.5 McFarland suspension 1:100 into MH broth. Check the inoculum by diluting the prepared bacterial suspension 1:100 (10 μl bacterial suspension+990 μl 0.85% NaCl). Plate 10 μl of the dilution on MH agar plates (×2). Incubate o.n. at 37° C., count the colonies and calculate the final CFU/ml inoculum in the plate by multiplying the average number of colonies with 10000 and divide by 2. The final inoculum should be between 3-7×10^5 CFU/ml. • Add 50 μl of the prepared bacterial suspension to each well in the microtiter plate except negative growth control. Preparation of Compounds/Antibiotics • Calculate the desired concentration-range and volume of the compounds/antibiotics in the assay. […] Dilute the stock solution in MH broth. Make subsequent 2-fold dilutions in MH broth of the desired concentrations if a concentration range is to be tested (remember the extra dilution factor in the assay plate). Always include extra volume for pipetting. Take into consideration stock solutions that are made in buffers that have an effect on bacterial growth (e.g. DMSO). Assay: • Determining the MIC of compounds/antibiotics alone: • Add 25 μl of each concentration of compound/antibiotic to row 2-11 (highest concentration in row 2) • Add 25 μl MH broth to row 2-11 • Add 50 μl MH broth to row 12 (positive control) • Add 100 μl MH broth to row 1 • Add 50 μl bacterial suspension to row 2-12. • Determining the MIC of antibiotics+compounds: • Add 25 μl of each concentration of antibiotic to row 2-11 (highest concentration in row 2) • Add 25 μl of compound to row 2-11 • Add 50 μl MH broth to row 12 (positive control) • Add 100 μl MH broth to row 1 • Add 50 μl bacterial suspension to row 2-12. • Incubate the plate for 20 hrs at 37° C. and determine the MIC in the presence and absence of inhibitor.

[9] = tested on: K. pneumoniae 50732159 (MBL negative); experiment: as above; format: cell-based; conditions: 50732159 K. pneumoniae MBL negative; for Meropenem MIC (mg/L) in presence of compound: compound at 125 μM
Procedure: as §4, §6

[10] = tested on: P. aeruginosa 50808021 (MBL negative); experiment: as above; format: cell-based; conditions: compound at 125 μM; 50808021 P. aeruginosa MBL negative
Procedure: as §4, §6

[11] = tested on: E. coli K71-77 (NDM-1); experiment: as above; format: cell-based; conditions: absence of inhibitor; K71-77 E. coli NDM-1
Procedure: as §4, §6

[12] = tested on: K. pneumoniae K66-45 (NDM-1); experiment: as above; format: cell-based; conditions: absence of inhibitor; K66-45 K. pneumoniae NDM-1
Procedure: as §4, §6

[13] = tested on: E. coli 50639799 (VIM-1); experiment: as above; format: cell-based; conditions: absence of inhibitor; 50639799 E. coli VIM-1
Procedure: as §4, §6

[14] = tested on: K. pneumoniae A3-81 (VIM-1); experiment: as above; format: cell-based; conditions: absence of inhibitor; A3-81 K. pneumoniae VIM-1
Procedure: as §4, §6

Sequence of GIM-1 (Q704V1 19-250 limits assumed): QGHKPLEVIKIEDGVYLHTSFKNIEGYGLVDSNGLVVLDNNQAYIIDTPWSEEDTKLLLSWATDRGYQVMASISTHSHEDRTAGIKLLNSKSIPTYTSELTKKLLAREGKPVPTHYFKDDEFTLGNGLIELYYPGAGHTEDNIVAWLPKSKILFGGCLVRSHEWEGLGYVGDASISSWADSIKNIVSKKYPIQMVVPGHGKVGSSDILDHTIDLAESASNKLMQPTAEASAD
Sequence of GIM-1 in E. coli SNO3 containing pET26b-blaGIM-1 (Q704V1 19-250 limits assumed): as above
Sequence of NDM-1 (C7C422 whole entry, looked up, species assumed): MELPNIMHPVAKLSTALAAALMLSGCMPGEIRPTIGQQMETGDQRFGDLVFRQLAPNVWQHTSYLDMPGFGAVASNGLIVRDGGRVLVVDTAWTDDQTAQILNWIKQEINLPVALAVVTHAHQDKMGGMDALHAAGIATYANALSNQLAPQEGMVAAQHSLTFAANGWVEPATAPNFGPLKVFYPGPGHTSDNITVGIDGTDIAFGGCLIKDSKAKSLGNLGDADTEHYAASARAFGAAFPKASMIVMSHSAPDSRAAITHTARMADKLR

SMILES: COc1ccc(Cn2cc(CN(Cc3ccccn3)Cc3ccccn3)nn2)cc1 [Example 3, 1-(1-(4-methoxybenzyl)-1H-1,2,3-triazol-4-yl)-N,N-bis(pyridin-2-ylmethyl)methanamine]
- IC50 [1]: 19.8 µM
- inhibition at 250 µM [2]: 74%
- inhibition at 250 µM [3]: 15.7%

SMILES: COc1cc(-n2cc(CN(Cc3ccccn3)Cc3ccccn3)nn2)cc(OC)c1OC [Example 5, 1-(pyridin-2-yl)-N-(pyridin-2-ylmethyl)-N-((1-(3,4,5-trimethoxyphenyl)-1H-1,2,3-triazol-4-yl)methyl)methanamine]
- IC50 [4]: 0.79 µM
- IC50 [1]: 11.5 µM
- inhibition at 250 µM [2]: 73.8%
- inhibition at 250 µM [3]: 14.4%

SMILES: O=[N+]([O-])c1ccc(Cn2cc(CN(Cc3ccccn3)Cc3ccccn3)nn2)cc1 [Example 6, 1-(1-(4-nitrobenzyl)-1H-1,2,3-triazol-4-yl)-N,N-bis(pyridin-2-ylmethyl)methanamine]
- IC50 [4]: 0.71 µM
- IC50 [1]: 40.9 µM
- inhibition at 250 µM [2]: 82.1%
- inhibition at 250 µM [3]: 20.6%

SMILES: COc1cc(Cn2cc(CN(Cc3ccccn3)Cc3ccccn3)nn2)cc(OC)c1OC [Example 7, 1-(pyridin-2-yl)-N-(pyridin-2-ylmethyl)-N-((1-(3,4,5-trimethoxybenzyl)-1H-1,2,3-triazol-4-yl)methyl)methanamine]
- IC50 [4]: 0.14 µM
- IC50 [1]: 18.7 µM
- inhibition at 250 µM [2]: 75.3%
- inhibition at 250 µM [3]: 12.5%

SMILES: COc1ccc(Cn2cc(CN(Cc3ccccn3)Cc3ccccn3)nn2)cc1[N+](=O)[O-] [Example 8, 1-(1-(4-methoxy-3-nitrobenzyl)-1H-1,2,3-triazol-4-yl)-N,N-bis(pyridin-2-ylmethyl)methanamine]
- IC50 [4]: 1.03 µM
- IC50 [1]: 14.8 µM
- IC50 [5]: 1.06 µM
- inhibition at 250 µM [2]: 83%
- inhibition at 250 µM [3]: 22.2%

SMILES: COc1ccc(Cn2cc(CN(Cc3ccccn3)Cc3ccccn3)nn2)cc1Br [Example 9]
- IC50 [4]: 3.15 µM
- IC50 [1]: 19 µM
- IC50 [5]: 0.6 µM
- inhibition at 250 µM [2]: 84.2%
- inhibition at 250 µM [3]: 14.8%

SMILES: COc1ccc(-n2cc(CN(Cc3ccccn3)Cc3ccccn3)nn2)c(OC)c1 [Example 11, 1-(1-(2,4-dimethoxyphenyl)-1H-1,2,3-triazol-4-yl)-N,N-bis(pyridin-2-ylmethyl)methanamine]
- IC50 [4]: 0.86 µM
- IC50 [1]: 12.2 µM
- inhibition at 250 µM [2]: 75.1%
- inhibition at 250 µM [3]: 16.5%

SMILES: FC(F)(F)c1ccc(-n2cc(CN(Cc3ccccn3)Cc3ccccn3)nn2)cc1 [Example 12, 1-(pyridin-2-yl)-N-(pyridin-2-ylmethyl)-N-((1-(4-(trifluoromethyl)phenyl)-1H-1,2,3-triazol-4-yl)methyl)methanamine]
- IC50 [4]: 1.1 µM
- IC50 [1]: 12.9 µM
- synergistic effect with meropenem [6]: No synergistic effect
- inhibition at 250 µM [2]: 64.2%
- inhibition at 250 µM [3]: 15.7%

SMILES: COc1ccc(-n2cc(CN(Cc3ccccn3)Cc3ccccn3)nn2)cc1 [Example 13, 1-(1-(4-methoxyphenyl)-1H-1,2,3-triazol-4-yl)-N,N-bis(pyridin-2-ylmethyl)methanamine]
- IC50 [4]: 1.43 µM
- IC50 [1]: 24.9 µM
- IC50 [5]: 0.72 µM
- inhibition at 250 µM [2]: 82%
- inhibition at 250 µM [3]: 20.6%

SMILES: C[C@@H](N)C(=O)N[C@H](C)C(=O)NCCc1ccc(NC(=O)CN(Cc2ccccn2)Cc2ccccn2)cc1.Cl [Example 24, (R)-1-(((R)-1-((4-(2-(bis(pyridin-2-ylmethyl)amino)acetamido)phenethyl)amino)-1-oxopropan-2-yl)amino)-1-oxopropan-2-aminium chloride]
- IC50 [4]: 0.4 µM
- IC50 [1]: 22.8 µM
- IC50 [5]: 0.52 µM
- synergistic effect with meropenem [6]: No synergistic effect
- inhibition at 250 µM [2]: 98.2%
- synergistic activity with meropenem [7]: strong synergistic potentiation of meropenem
- inhibition at 250 µM [3]: 69.2%
- Meropenem MIC (mg/L) in presence of compound [8]: 0.5 mg/L
- Meropenem MIC (mg/L) in presence of compound [9]: 32 mg/L
- Meropenem MIC (mg/L) in presence of compound [10]: 128 to 256 mg/L

SMILES: C[C@@H](O)[C@H]1C(=O)N2C(C(=O)O)=C(S[C@@H]3CN[C@H](C(=O)N(C)C)C3)[C@H](C)[C@H]12 [MEM, Meropenem]
- Meropenem MIC ([8]; absence of inhibitor): 0.5 µg/mL
- Meropenem MIC [11]: 1 to 4 µg/mL
- Meropenem MIC ([9]; absence of inhibitor): 32 µg/mL
- Meropenem MIC [12]: 32 to 64 µg/mL
- Meropenem MIC [13]: 8 to 16 µg/mL
- Meropenem MIC [14]: 64 to 256 µg/mL

SMILES: c1ccc(CN(CCN(Cc2ccccn2)Cc2ccccn2)Cc2ccccn2)nc1 [TPEN, N,N,N′,N′-tetrakis(2-pyridylmethyl) ethylenediamine, reference compound]
- IC50 [4]: 0.61 µM
- IC50 [1]: 0.3 µM
- synergistic activity with meropenem [7]: Synergistic activity
- Meropenem MIC (mg/L) in presence of compound [8]: 1 mg/L
- Meropenem MIC (mg/L) in presence of compound [9]: ≤0.064 mg/L
- Meropenem MIC (mg/L) in presence of compound [10]: 64 mg/L
